Measurements as given in BindingDB's records for doi:10.1124/mol.105.012005 (Wyeth Research, 2005).

What was measured:
[1] = biological target: T1, Excitatory amino acid transporter 3 (Homo sapiens, UniProt P43005)
T1 sequence (P43005 whole entry): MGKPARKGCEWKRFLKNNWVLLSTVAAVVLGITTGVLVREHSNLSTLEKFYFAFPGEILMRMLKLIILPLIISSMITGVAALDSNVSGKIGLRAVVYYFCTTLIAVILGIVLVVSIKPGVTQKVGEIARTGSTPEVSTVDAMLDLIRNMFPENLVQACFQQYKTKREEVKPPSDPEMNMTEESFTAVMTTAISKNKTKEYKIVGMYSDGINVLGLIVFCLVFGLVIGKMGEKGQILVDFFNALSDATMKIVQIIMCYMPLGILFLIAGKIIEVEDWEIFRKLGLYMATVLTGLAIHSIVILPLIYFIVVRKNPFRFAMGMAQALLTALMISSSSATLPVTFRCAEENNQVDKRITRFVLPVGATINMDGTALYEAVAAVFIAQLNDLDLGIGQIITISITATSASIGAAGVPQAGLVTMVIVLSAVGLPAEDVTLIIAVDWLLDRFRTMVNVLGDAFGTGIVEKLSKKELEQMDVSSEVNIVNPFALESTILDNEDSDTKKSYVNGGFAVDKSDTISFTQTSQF

[2] = biological target: Excitatory amino acid transporter 1 (Homo sapiens, UniProt P43003)
Excitatory amino acid transporter 1, sequence (P43003 whole entry): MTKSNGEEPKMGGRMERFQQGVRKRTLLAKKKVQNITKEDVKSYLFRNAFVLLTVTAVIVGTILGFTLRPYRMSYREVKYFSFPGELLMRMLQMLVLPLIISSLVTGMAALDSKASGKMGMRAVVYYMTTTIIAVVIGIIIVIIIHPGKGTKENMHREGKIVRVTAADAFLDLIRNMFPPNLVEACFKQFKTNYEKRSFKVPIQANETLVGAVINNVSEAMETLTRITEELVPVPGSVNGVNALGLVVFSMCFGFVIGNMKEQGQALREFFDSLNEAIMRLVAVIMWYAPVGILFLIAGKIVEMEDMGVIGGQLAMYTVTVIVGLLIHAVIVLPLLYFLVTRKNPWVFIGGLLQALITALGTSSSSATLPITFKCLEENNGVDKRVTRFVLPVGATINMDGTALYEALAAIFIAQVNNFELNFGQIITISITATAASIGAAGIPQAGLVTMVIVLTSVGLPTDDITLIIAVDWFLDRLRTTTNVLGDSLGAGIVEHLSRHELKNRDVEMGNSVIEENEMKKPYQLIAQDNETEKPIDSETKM

IC50 [1] [µM] | IC50 [2] [µM] | Structure (SMILES)
1.45 | – | Cc1cc(C(=O)NC[C@H](N)C(=O)O)ccc1-c1ccc(Cl)cc1 [3-[3-Methyl-4-(4-chlorophenyl)benzoylamino]alanine]
1.84 | 3.43 | N[C@@H](CC(=O)Nc1ccc2c(c1)Cc1cc(C(F)(F)F)ccc1-2)C(=O)O [WAY-212922]
6.56 | 1.97 | Cc1ccccc1-c1ccc(NC(=O)C[C@H](N)C(=O)O)cc1 [WAY-213394]
